The source of these data is patent publication US20250115595A1, “INHIBITORS OF HYPOXIA-INDUCIBLE FACTORS” (The Johns Hopkins University, priority 2021, published 2025).

For one data set, the system named is C57BL/6 mice. Briefly: Laser CNV model, intravitreal dosing. Type of data set: in vivo, mouse. The note with it: single IVT injection 70 ng on day 3, day 7. Here is the method:
To evaluate the efficacy of 32-134D following intraocular administration, the laser CNV model for neovascular (wet) age-related macular degeneration was used (FIG. 25A). C57BL/6 mice were treated with laser on day 0. On day 3, mice were treated with a single IVT injection with 32-134D (1 μl of 14 or 70 ng/μl solution) or with vehicle control. On day 7, mice were euthanized and choroidal flat mounts were stained with isolectin B4 to examine the area of CNV.
(§1) Intraocular injections: Intravitreal injections were performed with a PLI-100A Pico-liter Microinjector (Warner Instruments, Harvard Bioscience) using pulled-glass micropipettes. Each micropipette was calibrated to deliver a 1 μl volume on depression of a foot switch. The mice were anesthetized with a ketamine (100 mg/kg) and xylazine (5 mg/kg) mixture, and under a dissecting microscope, the sharpened tip of the micropipette was passed through the sclera just posterior to the limbus into the vitreous cavity and the foot switch was depressed, which caused fluid to penetrate into the vitreous space. Test compound was injected into the vitreous cavity in OIR and STZ mice for vascular permeability test, retinal vasculature and lysates for WB and qPCR analysis.

Data set [1] concerns Hep3B human HCC tumor xenografts. Briefly: Hep3B tumor xenograft in nude mice. The class given is in vivo, mouse. On the procedure:
Effects of 32-134D on Hep3B human HCC tumor xenografts. To analyze the effect of HIF inhibitor 32-134D on tumor xenograft growth, Hep3B cells were injected subcutaneously into immunodeficient mice and when tumors reached a volume of 150 mm3 (designated treatment day 1), the mice were treated with vehicle or 32-134D by daily intraperitoneal injection. […] Treatment with 32-134D for 17 days had no effect on mouse body weight (FIG. 6C), appearance or behavior. We treated additional mice with 32-134D and confirmed inhibition of tumor growth without effects on body weight (FIGS. 7A-C).
Protocols were approved by the Johns Hopkins University Animal Care and Use Committee and used in accordance with the NIH Guide for the Care and Use of Laboratory Animals (National Research Council, 2011). Female nude mice (NCI Athymic NCr-nu/nu) and male C57L/J mice were purchased from Charles River and The Jackson Laboratory, respectively. Hep3B (8×106) and Hepa1-6 (1×107) cells were implanted subcutaneously in 6- to 8-week-old mice, and tumor volume was calculated: V=abc×0.52. For Hep3B tumor studies, once tumors reached 100-150 mm3, mice were randomized into groups to receive daily intraperitoneal injection of either vehicle or 32-134D. For Hepa1-6 tumors, mice were randomized to receive treatment once tumors reached a size of 50-100 mm3. Tumors were harvested 4 hours after the last treatment.
Tumors were fixed in 10% formalin in phosphate buffer for 24 hours and placed in PBS the following day for paraffin embedding and sectioning. Anti-CD31 immunohistochemical staining, hematoxylin and eosin counterstaining, and whole slide scanning were performed by NDB Bio […].
Human (EPO, SCF, SDF1a, VEGFA) and mouse (Cxcl1, Cxcl2, Cxcl9, Cxcl10, Il6, Il10, IL22, Vegfa) protein concentrations in tumor homogenates were determined using ELISA kits (Table 4) from Novus Biologicals. Optical density was obtained at 450 nm (corrected for readings at 570 nm) using the VICTOR Nivo plate reader (PerkinElmer). Sample protein concentration was calculated by linear regression from a standard curve.

Another data set concerns OIR mice. Briefly: OIR mouse model, intraocular dosing. Type of data set: in vivo. On the procedure: The efficacy of 32-134D following intraocular administration with 70 ng, as well as a lower dose (14 ng), in OIR mice at P12 (J. Zhang et al., J Clin Invest 131 (2021)) was determined.
The efficacy of 32-134D following IVT administration was also evaluated in the OIR model. At P14, pups were treated with a single intravitreal injection with 32-134D (14 or 70 ng) in 1 ul or with vehicle (DMSO) control. At P17, retinal flat mounts were stained with isolectin-B4 to examine the development of retinal neovascularization.
as §1
OIR mouse model: OIR experiments were performed as previously described (M. Rodrigues et al., 2013, Diabetes 62, 3863-3873). Briefly, C57BL/6 mice were placed in 75% O2 on P7. On P12, the mice were returned to room air and administered either by IP injection (digoxin and test compound) or by intravitreal injection. Mice with body weight less than 6 g at P17 were excluded from analysis. The data were collected from both males and females and the results combined, as there was no apparent difference between sexes. Representative images for selected time points from a minimum of three independent experiments are shown. Data from 3-8 pups were obtained at each time point.

For the molecule `Brc1ccc2c(-c3csc(-c4c[nH]c5c(Br)cccc45)n3)c[nH]c2c1` [Compound 32-134D, 4-(6-bromo-1H-indol-3-yl)-2-(7-bromo-1H-indol-3-yl)thiazole], the CNV area entry with C57BL/6 mice is “significant decrease”. For the same molecule, the tumor xenograft growth result in data set [1] (20 mg/kg daily intraperitoneal) is given as “Partial growth inhibition”; in data set [1] (40 mg/kg daily intraperitoneal) it was “maximal growth inhibition”; in data set [1] (80 mg/kg daily intraperitoneal), “maximal growth inhibition”. Further, in data set [1] (40 mg/kg/day), the “mass of tumors harvested” value is “significantly decreased”. In addition, in data set [1] (mouse, in vivo), the “blood vessel area in tumors (CD31 immunohistochemistry)” value is “markedly decreased”. For the same molecule, in data set [1] (treatment for 17 days), the mouse body weight result is “no effect”. In addition, in data set [1] (tumor RNA, RT-qPCR), the “tumor mRNAs encoding SCF, PGF, EPO, CD73, PDL1, VEGFA, SDF1” value was “significant decrease”. Besides, the “EPO, SCF, SDF1 and VEGFA protein in tumors” value in data set [1] (whole tumor lysates, ELISA) was “significantly decreased expression”. For the same molecule, in the data set on OIR mice (single 14-ng intraocular injection, P13 and P14), the “HIF-1α and HIF-2α protein accumulation in retina” value is “marked reduction”. In addition, the “expression of mRNAs encoding VEGF, KDR and other HIF-regulated angiogenic mediators” value in the data set on OIR mice (single intraocular injection at P12, P17) is on record as “decreased expression”. Besides, the retinal neovascularization result in the data set with OIR mice (single intravitreal injection 14 or 70 ng at P14, P17) is reported as “significant decrease”.
